Where two headings read alike, the source gives them in different places.
Biological target: T1, IRAK4 (Homo sapiens, UniProt Q9NWZ3)
T1 construct: Degradation of IRAK4 in OCI-LY10 was quantitatively measured using Meso Scale Discovery technology; endogenous in cells; host or cells: OCI-LY10
T1 sequence (Q9NWZ3 1-460): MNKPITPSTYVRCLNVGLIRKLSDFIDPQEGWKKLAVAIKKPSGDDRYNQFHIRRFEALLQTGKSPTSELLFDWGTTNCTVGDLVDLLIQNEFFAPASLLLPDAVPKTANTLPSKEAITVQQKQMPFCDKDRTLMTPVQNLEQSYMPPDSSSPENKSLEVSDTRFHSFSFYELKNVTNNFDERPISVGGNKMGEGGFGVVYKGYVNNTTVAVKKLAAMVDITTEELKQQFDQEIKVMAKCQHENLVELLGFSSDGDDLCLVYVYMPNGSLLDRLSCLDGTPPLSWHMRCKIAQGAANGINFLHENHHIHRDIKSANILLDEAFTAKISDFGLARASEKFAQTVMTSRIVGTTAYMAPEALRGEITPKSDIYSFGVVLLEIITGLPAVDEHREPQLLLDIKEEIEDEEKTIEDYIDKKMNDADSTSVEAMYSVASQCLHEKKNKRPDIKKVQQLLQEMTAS
Experiment: IRAK4 MSD Degradation in OCI-LY10
Format: cell-based
Details: OCI-LY10 cells
How it was run: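 DC50, from a three-parameter logistic fit and reported as letter bins A (<0.01 μM), B, C, D (>0.2 μM or not tested), reflects IRAK4 loss measured by MSD electrochemiluminescence in OCI-LY10 lysates. Treatment: 8 doses, 1:3 steps, top 1 to 10 μM, 4 to 24 h, 37 °C.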

[1] = 4 hrs incubation, MSD, read-out: IRAK4 degradation in OCI-LY10 at 4 hrs: DC50
[2] = 24 hrs incubation, MSD, read-out: IRAK4 degradation in OCI-LY10 at 24 hrs: DC50
[3] = 4 hrs incubation, read-out: IRAK4 degradation in OCI-LY10 at 4 hrs: DC50
[4] = 24 hrs incubation, read-out: IRAK4 degradation in OCI-LY10 at 24 hrs: DC50

SMILES	DC50 [1] [nM]	DC50 [2] [nM]	DC50 [3] [nM]	DC50 [4] [nM]
Cn1c(NC(=O)c2cccc(C(F)(F)F)n2)cc2cn([C@H]3CC[C@H](CN4CCN(c5cccc6c5n(C)c(=O)n6C5CCC(=O)NC5=O)CC4)CC3)nc2c1=O (stereo partly shown) [I-767]	> 200	> 200		
Cc1cccc(C(=O)Nc2cc3cn([C@H]4CC[C@H](CN5CC[C@@H](c6cccc7c6n(C)c(=O)n7C6CCC(=O)NC6=O)[C@H](F)C5)CC4)nc3c(=O)n2C)n1 (stereo partly shown) [I-768]	> 200	> 200		
COc1nc(NC(=O)c2cccc(C(F)(F)F)n2)cc2cn([C@H]3CC[C@H](CN4CCC(c5cccc6c5n(C)c(=O)n6C5CCC(=O)NC5=O)C(F)(F)C4)CC3)nc12 (stereo partly shown) [I-769]	> 200	> 200		
COc1nc(NC(=O)c2cccc(C)n2)cc2cn([C@H]3CC[C@H](CN4CCC(c5cccc6c5n(C)c(=O)n6C5CCC(=O)NC5=O)C(F)(F)C4)CC3)nc12 (stereo partly shown) [I-770]	> 200	> 200		
Cn1c(NC(=O)c2cccc(C(F)(F)F)n2)cc2cn([C@H]3CC[C@H](CN4CCC(c5cccc6c5n(C)c(=O)n6C5CCC(=O)NC5=O)C(F)(F)C4)CC3)nc2c1=O (stereo partly shown) [I-771]	> 200	> 200		
Cc1cccc(C(=O)Nc2cc3cn([C@H]4CC[C@H](CN5CCC(c6cccc7c6n(C)c(=O)n7C6CCC(=O)NC6=O)C(F)(F)C5)CC4)nc3c(=O)n2C)n1 (stereo partly shown) [I-772]	> 200	> 200		
COc1nc(NC(=O)c2cccc(C(F)(F)F)n2)cc2cn([C@H]3CC[C@H](CN4CC[C@@H](c5cccc6c5n(C)c(=O)n6C5CCC(=O)NC5=O)[C@H](F)C4)CC3)nc12 (stereo partly shown) [I-773]	> 200	> 200		
COc1nc(NC(=O)c2cccc(C(F)(F)F)n2)cc2cn([C@H]3CC[C@H](CN4CC[C@H](c5cccc6c5n(C)c(=O)n6C5CCC(=O)NC5=O)[C@@H](F)C4)CC3)nc12 (stereo partly shown) [I-774]	> 200	> 200		
COc1nc(NC(=O)c2cccc(C)n2)cc2cn([C@H]3CC[C@H](CN4CC[C@@H](c5cccc6c5n(C)c(=O)n6C5CCC(=O)NC5=O)[C@H](F)C4)CC3)nc12 (stereo partly shown) [I-775]	> 200	> 200		
Cn1c(NC(=O)c2cccc(C(F)(F)F)n2)cc2cn([C@H]3CC[C@H](CN4CC[C@@H](c5cccc6c5n(C)c(=O)n6C5CCC(=O)NC5=O)[C@H](F)C4)CC3)nc2c1=O (stereo partly shown) [I-776]	> 200	> 200		
Cn1c(=O)n(C2CCC(=O)NC2=O)c2cccc(N3CCC(C[C@H]4CC[C@H](n5cc6cc(NC(=O)c7cccc(C(F)(F)F)n7)ncc6n5)CC4)CC3)c21 (stereo partly shown) [I-777]	> 200	> 200		
O=C1CCC(c2ccc(N3CC(CN4CCN(C[C@H]5CC[C@H](n6cc(NC(=O)c7cnn8ccc(N9C[C@H]%10C[C@@H]9CO%10)nc78)c(C(F)F)n6)CC5)CC4)C3)cc2Cl)C(=O)N1 (stereo partly shown) [I-778]	> 200	> 200		
O=C1CCC(c2ccc(N3CC(N4CCN([C@H]5CC[C@H](n6cc(NC(=O)c7cnn8ccc(N9C[C@H]%10C[C@@H]9CO%10)nc78)c(C(F)F)n6)CC5)CC4)C3)cc2Cl)C(=O)N1 (stereo partly shown) [I-779]	> 200	> 200		
O=C1CCC(c2ccc([C@H]3C[C@H](CO[C@H]4CCN(C[C@H]5CC[C@H](n6cc(NC(=O)c7cnn8ccc(N9C[C@H]%10C[C@@H]9CO%10)nc78)c(C(F)F)n6)CC5)C[C@H]4F)C3)cc2Cl)C(=O)N1 (stereo partly shown) [I-780]	> 200	> 200		
COc1cc2nn([C@H]3CC[C@H](CN4CC[C@@H](c5cccc6c5n(C)c(=O)n6C5CCC(=O)NC5=O)[C@H](F)C4)CC3)cc2cc1NC(=O)c1cccc(C(F)(F)F)n1 (stereo partly shown) [I-783]	> 200	> 200		
COc1cc2nn([C@H]3CC[C@H](CN4CC[C@H](c5cccc6c5n(C)c(=O)n6C5CCC(=O)NC5=O)[C@@H](F)C4)CC3)cc2cc1NC(=O)c1cccc(C(F)(F)F)n1 (stereo partly shown) [I-784]	> 200	> 200		
Cn1c(=O)n(C2CCC(=O)NC2=O)c2cccc(N3CC(CCC4(F)CN(C[C@H]5CC[C@H](n6cc(NC(=O)c7cnn8ccc(N9C[C@H]%10C[C@@H]9CO%10)nc78)c(C(F)F)n6)CC5)C4)C3)c21 (stereo partly shown) [I-785]	> 200	> 200		
Cn1c(=O)n(C2CCC(=O)NC2=O)c2cccc(N3CCC(OC[C@H]4CC[C@H](n5cc(NC(=O)c6cnn7cccnc67)c(C(F)F)n5)CC4)CC3)c21 (stereo partly shown) [I-786]	> 200			
CN(CC1(F)CCN(c2cccc3c2n(C)c(=O)n3C2CCC(=O)NC2=O)CC1)C1CCC(n2cc3cc(NC(=O)c4cccc(C(F)(F)F)n4)ncc3n2)CC1 (stereo not shown) [I-787]	> 200	> 200		
CN(CC1(F)CCN(c2cccc3c2n(C)c(=O)n3C2CCC(=O)NC2=O)CC1)C1CCC(n2cc3cc(NC(=O)c4cccc(C(F)(F)F)n4)ccc3n2)CC1 (stereo not shown) [I-788]	> 200	> 200		
Cn1c(=O)n(C2CCC(=O)NC2=O)c2cccc(N3CC(F)(CN(C)[C@H]4CC[C@H](n5cc6cc(NC(=O)c7cccc(C(F)(F)F)n7)ncc6n5)CC4)C3)c21 (stereo partly shown) [I-789]	> 200	> 200		
Cn1c(=O)n(C2CCC(=O)NC2=O)c2cccc(N3CC(F)(CN(C)[C@H]4CC[C@H](n5cc6cc(NC(=O)c7cccc(C(F)(F)F)n7)ccc6n5)CC4)C3)c21 (stereo partly shown) [I-790]	> 200	> 200		
Cn1c(=O)n(C2CCC(=O)NC2=O)c2cccc(N3CCC(O[C@H]4CC[C@H](n5cc6cc(NC(=O)c7cccc(C(F)(F)F)n7)ncc6n5)CC4)CC3)c21 (stereo partly shown) [I-791]	> 200	> 200		
Cn1c(=O)n(C2CCC(=O)NC2=O)c2cccc(N3CCC(O[C@H]4CC[C@H](n5cc6cc(NC(=O)c7cccc(C(F)(F)F)n7)ccc6n5)CC4)CC3)c21 (stereo partly shown) [I-792]	> 200	> 200		
Cn1c(=O)n(C2CCC(=O)NC2=O)c2cccc(N3CCC(O[C@H]4CC[C@H](n5cc6cc(NC(=O)c7cccc(C(F)(F)F)n7)ncc6n5)CC4)C3)c21 (stereo partly shown) [I-793]	> 200	> 200		
Cn1c(=O)n(C2CCC(=O)NC2=O)c2cccc(N3CCC(O[C@H]4CC[C@H](n5cc6cc(NC(=O)c7cccc(C(F)(F)F)n7)ccc6n5)CC4)C3)c21 (stereo partly shown) [I-794]			> 200	> 200
Cn1c(=O)n(C2CCC(=O)NC2=O)c2cccc(N3CC(O[C@H]4CC[C@H](n5cc6cc(NC(=O)c7cccc(C(F)(F)F)n7)ncc6n5)CC4)C3)c21 (stereo partly shown) [I-795]			> 200	> 200
Cn1c(=O)n(C2CCC(=O)NC2=O)c2cccc(N3CC(O[C@H]4CC[C@H](n5cc6cc(NC(=O)c7cccc(C(F)(F)F)n7)ccc6n5)CC4)C3)c21 (stereo partly shown) [I-796]			> 200	> 200
